Data reported in patent US20220370440A1 (Lead Discovery Center GmbH, priority 2018, published 2022).
Like-named read-outs stand apart in the source and are kept apart here.

Experiments:
EGFR wt = EGFR wt (Homo sapiens, UniProt P00533); assay: EGFR wt Lance assay; type: biochemical
Description: (§1) Inhibition is indicated as […] [nM] (“−”=not measured). Compounds having an activity designated as “A” provided an IC50≤100 nM; compounds having an activity designated as “B” provided an 100 nM<IC50≤500 nM; compounds having an activity designated as “C” provided an 500 nM<IC50≤1000 nM; compounds having an activity designated as “D” provided an 1000 nM<IC50≤100000 nM; and compounds having an activity designated as “E” provided an IC50>10000 nM.

[1] = molecular target: Her2 Exon 20 INSYVMA Ba/F3 (Homo sapiens, UniProt P04626, DUP772-775, cells depend on it); assay: Her2 Exon 20 INSYVMA Ba/F3 CellTiter-Glo; type: cell-based; settings: 72 h, read-out: Her2 Exon 20 INSYVMA Ba/F3 CTG IC50
Her2 Exon 20 INSYVMA Ba/F3, sequence (P04626 with tags, fused parts or gaps DUP772-775): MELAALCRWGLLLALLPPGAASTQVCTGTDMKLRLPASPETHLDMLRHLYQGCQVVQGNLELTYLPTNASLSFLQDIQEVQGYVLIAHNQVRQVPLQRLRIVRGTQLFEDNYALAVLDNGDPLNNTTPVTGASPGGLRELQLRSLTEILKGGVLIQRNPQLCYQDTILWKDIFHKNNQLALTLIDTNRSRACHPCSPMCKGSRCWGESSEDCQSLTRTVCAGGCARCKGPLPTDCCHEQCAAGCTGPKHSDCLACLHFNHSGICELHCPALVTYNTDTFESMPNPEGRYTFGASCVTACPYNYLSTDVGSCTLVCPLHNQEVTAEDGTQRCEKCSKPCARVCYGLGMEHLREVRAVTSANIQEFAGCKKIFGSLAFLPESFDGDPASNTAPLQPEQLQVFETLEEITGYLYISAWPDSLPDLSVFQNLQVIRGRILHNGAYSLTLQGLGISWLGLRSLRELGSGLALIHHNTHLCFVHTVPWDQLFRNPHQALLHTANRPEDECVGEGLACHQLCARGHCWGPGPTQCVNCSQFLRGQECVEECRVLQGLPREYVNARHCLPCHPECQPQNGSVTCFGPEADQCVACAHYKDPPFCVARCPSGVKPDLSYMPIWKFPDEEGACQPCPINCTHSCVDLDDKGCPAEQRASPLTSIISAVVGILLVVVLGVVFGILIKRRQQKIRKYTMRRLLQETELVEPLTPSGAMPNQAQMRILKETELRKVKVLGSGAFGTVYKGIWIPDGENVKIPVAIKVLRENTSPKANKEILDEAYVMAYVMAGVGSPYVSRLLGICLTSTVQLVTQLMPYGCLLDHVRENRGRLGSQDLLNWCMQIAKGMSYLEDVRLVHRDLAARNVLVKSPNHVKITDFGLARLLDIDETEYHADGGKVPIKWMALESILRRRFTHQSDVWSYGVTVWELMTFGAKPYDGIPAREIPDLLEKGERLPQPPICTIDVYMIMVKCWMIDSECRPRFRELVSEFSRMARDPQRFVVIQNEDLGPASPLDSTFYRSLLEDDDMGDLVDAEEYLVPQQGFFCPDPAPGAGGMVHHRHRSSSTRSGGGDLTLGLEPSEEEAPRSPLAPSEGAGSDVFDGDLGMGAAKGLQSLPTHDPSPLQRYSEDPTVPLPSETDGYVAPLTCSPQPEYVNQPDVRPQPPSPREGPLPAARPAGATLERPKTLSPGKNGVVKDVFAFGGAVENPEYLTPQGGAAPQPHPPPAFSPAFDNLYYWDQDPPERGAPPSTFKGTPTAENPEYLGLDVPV
Description: (§2) 2. Measurement of Cellular Activity
(§3) The CellTiter-Glo Luminescent Cell Viability Assay (Promega) is a homogeneous method of determining the number of viable cells in culture. It is based on quantification of ATP, indicating the presence of metabolically active cells. Cells are seeded on day 1 at cell numbers that assure assay linearity and optimal signal intensity. After incubation for 24 h in humidified chambers at 37° C. and 5% CO2, compounds in DMSO are added at different concentrations. Cells are further incubated for 72 h at 37° C. and 5% CO2. Cells treated with the compound vehicle DMSO are used as positive controls and cells treated with 10 μM Staurosporine serve as negative controls. At day 5 the CellTiter Glo Reagent is prepared according to the instructions of the kit (Promega Inc.): Reagent is mixed 1:1 with cell culture medium. Thereon, mixture and assay plates are equilibrated at room temperature for 20 min. Equal volumes of the reagent-medium-mixture is added to the volume of culture medium present in each well. The plates are mixed at ˜200 rpm for 2 minutes on an orbital shaker. The microplates are then incubated at room temperature for 10 minutes for stabilization of the luminescent signal. Following incubation the luminescence is recorded on a Victor microplate reader (Perkin Elmer) using a 200 ms integration time. The data is then analyzed with Excel using the XLFIT Plugin (dose response Fit 205) for IC50-determination. As quality control the Z′-factor is calculated from 16 positive and negative control values. Only assay results showing a Z′-factor ≥0.5 are used for further analysis.
(§4) Inhibition is indicated as IC50 [nM] (“−”=not measured). Compounds having an activity designated as “A” provided an IC50≤100 nM; compounds having an activity designated as “B” provided an 100 nM<IC50≤500 nM; compounds having an activity designated as “C” provided an 500 nM<IC50≤1000 nM; compounds having an activity designated as “D” provided an 1000 nM<IC50≤10000 nM; and compounds having an activity designated as “E” provided an IC50>10000 nM.

HER2 INS YVMA = molecular target: T1, HER2 INS YVMA (Homo sapiens, UniProt P04626, INS775YVMA); assay: Lance Kinase Activity Assay, HER2 INS YVMA (Her2 Exon 20 INSYVMA Lance); type: biochemical
T1 construct: purchased DPF
T1 sequence (P04626 with tags, fused parts or gaps INS775YVMA): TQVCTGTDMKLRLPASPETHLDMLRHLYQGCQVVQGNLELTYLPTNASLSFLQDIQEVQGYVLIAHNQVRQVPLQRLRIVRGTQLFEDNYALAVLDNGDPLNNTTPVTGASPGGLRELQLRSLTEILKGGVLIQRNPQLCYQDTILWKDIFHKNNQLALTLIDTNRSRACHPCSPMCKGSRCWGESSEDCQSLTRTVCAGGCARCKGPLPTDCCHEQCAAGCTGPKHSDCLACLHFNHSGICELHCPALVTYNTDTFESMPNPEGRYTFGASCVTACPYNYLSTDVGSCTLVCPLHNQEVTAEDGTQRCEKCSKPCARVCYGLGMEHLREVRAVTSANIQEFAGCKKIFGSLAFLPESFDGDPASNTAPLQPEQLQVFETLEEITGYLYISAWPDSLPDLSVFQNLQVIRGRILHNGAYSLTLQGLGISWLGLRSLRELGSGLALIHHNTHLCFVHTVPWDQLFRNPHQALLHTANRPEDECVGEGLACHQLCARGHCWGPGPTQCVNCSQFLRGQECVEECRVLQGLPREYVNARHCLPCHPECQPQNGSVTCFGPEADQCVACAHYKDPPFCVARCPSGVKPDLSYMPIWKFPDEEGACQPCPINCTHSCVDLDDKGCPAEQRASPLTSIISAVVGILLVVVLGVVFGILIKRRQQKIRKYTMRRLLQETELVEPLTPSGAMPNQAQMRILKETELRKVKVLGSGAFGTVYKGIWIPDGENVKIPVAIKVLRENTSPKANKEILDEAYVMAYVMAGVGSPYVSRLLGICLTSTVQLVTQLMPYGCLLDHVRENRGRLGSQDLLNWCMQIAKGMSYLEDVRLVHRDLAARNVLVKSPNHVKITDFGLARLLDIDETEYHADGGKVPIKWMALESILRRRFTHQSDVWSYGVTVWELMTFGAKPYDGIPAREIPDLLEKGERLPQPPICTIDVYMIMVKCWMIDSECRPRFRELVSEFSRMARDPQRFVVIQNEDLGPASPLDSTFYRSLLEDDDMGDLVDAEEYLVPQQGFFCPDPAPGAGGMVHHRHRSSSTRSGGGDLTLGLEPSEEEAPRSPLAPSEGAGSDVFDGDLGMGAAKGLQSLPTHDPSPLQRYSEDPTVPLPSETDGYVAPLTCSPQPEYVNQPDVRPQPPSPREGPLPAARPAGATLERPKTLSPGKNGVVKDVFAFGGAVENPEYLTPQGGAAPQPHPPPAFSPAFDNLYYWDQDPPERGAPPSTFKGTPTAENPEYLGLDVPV
Description: 1. Measurement of HER2 INS YVMA Kinase Activity
This protocol describes how the Lance Kinase Activity Assay was performed to determine IC50 values of compounds of general formula (I) against HER2 INS YVMA. The principle behind this enzymatic assay is based upon the phosphorylation of the Ulight-peptide substrate. It is detected by using a specific EU-labeled anti-phospho peptide antibody. The binding of the Eu labeled anti-phospho peptide antibody to the phosphorylated ULight labeled peptide gives rise to a FRET-signal.
Binding of an inhibitor to the kinase prevents phosphorylation of the Ulight-substrate, resulting in a loss of FRET. In table 2 is summarized the relevant information for the LANCE assay.
The compounds of general formula (I) summarized in Table 3 were serial diluted from a 10 mM DMSO stock solution 1:3 over 8 steps in a total volume of 20 μl.
For every sample, 8 μl of kinase-substrate mix was transferred into a suitable assay plate (e.g. Corning #3673). Compound was added via pintool transfer (10 nl/well) using a Biomek FX robot (BeckmanCoulter). Reaction was started by addition of 2 μl ATP working solution and mixed using variomag teleshaker (Thermo Fischer Scientific). After 1 h incubation at room temperature the reaction was stopped with 10 μl detection mix containing the Eu-labeled phosphospecific antibody and 10 mM EDTA. After a second incubation period of 1 h at room temperature the FRET signal was measured at 340 nm excitation, 665 nm and 615 nm emission (for the ULight-substrate and Eu-AB, respectively) with an Envision spectrophotometer (Perkin Elmer, Waltham, Mass., USA) with 50 μs delay and 300 μs integration time. IC50 values were determined from the sigmoidal dose response curves with the software Quattro Workflow (Quattro GmbH, Munich, Germany).

H1975 = H1975 CellTiter-Glo; type: cell-based; settings: Homo sapiens, NCI-H1975; 72 h compound incubation; read-out: H1975 CTG IC50
Description: as §2, §3, §1

[2] = molecular target: EGFR Exon 20 INSNPH Ba/F3 (Homo sapiens, UniProt P00533, DUP771-773, cells depend on it); assay: EGFR Exon 20 INSNPH Ba/F3 CellTiter-Glo; type: cell-based; settings: 72 h, read-out: EGFR Exon 20 INSNPH Ba/F3 CTG IC50
Description: as §2, §3, §4

EGFR T790ML858R = EGFR T790ML858R (Homo sapiens, UniProt P00533, L858R/T790M); assay: EGFR T790ML858R Lance assay; type: biochemical
EGFR T790ML858R, sequence (P00533 25-1210 T790M/L858R): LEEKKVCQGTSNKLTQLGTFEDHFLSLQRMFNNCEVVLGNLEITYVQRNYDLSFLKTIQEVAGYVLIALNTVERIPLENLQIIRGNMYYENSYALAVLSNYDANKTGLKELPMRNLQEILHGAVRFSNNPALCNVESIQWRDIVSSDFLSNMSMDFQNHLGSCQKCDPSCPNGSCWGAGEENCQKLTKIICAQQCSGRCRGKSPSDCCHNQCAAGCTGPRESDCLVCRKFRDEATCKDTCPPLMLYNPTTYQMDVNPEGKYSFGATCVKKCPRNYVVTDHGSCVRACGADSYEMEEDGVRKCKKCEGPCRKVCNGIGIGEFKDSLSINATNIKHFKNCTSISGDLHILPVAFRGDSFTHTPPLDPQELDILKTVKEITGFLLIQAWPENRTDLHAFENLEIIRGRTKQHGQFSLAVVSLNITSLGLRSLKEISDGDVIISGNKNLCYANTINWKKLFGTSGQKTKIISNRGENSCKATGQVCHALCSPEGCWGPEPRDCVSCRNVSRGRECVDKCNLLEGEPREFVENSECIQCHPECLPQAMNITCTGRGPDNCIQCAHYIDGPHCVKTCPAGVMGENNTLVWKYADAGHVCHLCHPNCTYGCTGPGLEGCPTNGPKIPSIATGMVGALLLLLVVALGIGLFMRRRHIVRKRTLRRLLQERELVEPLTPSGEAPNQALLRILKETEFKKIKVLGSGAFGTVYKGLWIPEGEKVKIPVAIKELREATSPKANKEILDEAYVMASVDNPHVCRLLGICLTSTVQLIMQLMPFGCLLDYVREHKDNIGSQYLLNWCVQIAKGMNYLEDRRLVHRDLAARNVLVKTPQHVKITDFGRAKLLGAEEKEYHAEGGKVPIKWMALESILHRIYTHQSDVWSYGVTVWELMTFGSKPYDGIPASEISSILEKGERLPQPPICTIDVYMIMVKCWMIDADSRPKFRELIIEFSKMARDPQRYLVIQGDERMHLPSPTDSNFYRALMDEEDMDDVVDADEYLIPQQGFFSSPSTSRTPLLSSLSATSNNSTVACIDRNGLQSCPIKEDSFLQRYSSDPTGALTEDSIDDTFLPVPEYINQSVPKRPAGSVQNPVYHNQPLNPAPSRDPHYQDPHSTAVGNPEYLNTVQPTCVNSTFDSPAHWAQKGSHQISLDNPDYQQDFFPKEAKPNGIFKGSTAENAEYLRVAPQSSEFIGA
Description: as §1

A431 = A431 CellTiter-Glo; type: cell-based; settings: Homo sapiens, A-431; 72 h compound incubation; read-out: A431 CTG IC50
Description: as §2, §3, §1

EGFR wt, sequence (P00533 25-1210): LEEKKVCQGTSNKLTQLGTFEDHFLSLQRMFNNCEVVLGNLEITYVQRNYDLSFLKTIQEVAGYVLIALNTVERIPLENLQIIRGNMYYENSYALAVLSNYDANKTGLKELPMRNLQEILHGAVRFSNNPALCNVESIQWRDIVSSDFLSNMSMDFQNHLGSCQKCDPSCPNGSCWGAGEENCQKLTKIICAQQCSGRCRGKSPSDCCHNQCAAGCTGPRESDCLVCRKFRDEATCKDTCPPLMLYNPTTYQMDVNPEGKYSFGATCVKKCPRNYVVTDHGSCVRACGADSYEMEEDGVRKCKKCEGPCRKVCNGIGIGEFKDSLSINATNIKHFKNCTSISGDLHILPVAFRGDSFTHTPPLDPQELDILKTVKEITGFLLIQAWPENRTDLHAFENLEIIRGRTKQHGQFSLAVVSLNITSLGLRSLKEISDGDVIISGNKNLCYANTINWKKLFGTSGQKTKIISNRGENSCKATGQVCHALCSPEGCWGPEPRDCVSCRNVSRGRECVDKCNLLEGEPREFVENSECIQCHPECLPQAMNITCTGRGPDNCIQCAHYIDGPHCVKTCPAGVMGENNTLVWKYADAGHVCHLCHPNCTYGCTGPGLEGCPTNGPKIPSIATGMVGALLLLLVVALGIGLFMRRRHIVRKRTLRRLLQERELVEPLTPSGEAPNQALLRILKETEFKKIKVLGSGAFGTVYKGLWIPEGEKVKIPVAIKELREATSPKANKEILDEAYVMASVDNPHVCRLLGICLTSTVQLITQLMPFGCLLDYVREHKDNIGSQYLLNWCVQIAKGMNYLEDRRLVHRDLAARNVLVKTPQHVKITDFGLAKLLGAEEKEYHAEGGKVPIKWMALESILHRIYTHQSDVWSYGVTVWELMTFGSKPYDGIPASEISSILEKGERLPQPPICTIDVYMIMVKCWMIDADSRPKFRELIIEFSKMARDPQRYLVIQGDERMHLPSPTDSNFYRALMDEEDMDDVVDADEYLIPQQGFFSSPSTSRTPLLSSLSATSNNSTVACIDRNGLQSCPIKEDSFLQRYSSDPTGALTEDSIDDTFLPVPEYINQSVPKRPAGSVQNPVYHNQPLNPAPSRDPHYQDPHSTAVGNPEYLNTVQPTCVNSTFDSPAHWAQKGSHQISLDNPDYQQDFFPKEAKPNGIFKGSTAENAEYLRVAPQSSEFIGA

| SMILES | IC50 (EGFR wt) | GI50 ([1]; CellTiter-Glo) | IC50 (HER2 INS YVMA; biochemical Lance assay) | IC50 (H1975) | GI50 ([2]; CellTiter-Glo) | IC50 (EGFR T790ML858R) | IC50 (A431) | GI50 [1] | IC50 (HER2 INS YVMA) | GI50 [2] |
| --- | --- | --- | --- | --- | --- | --- | --- | --- | --- | --- |
| C=CC(=O)Nc1cc(-c2c(-c3ccc(F)c(C(=O)N4CCOCC4)c3)[nH]c3nccc(Cl)c23)ccc1C [Example 33, N-(5-(4-chloro-2-(4-fluoro-3-(morpholine-4-carbonyl)phenyl)-1H-pyrrolo[2,3-b]pyridin-3-yl)-2-methylphenyl)acrylamide] | 500 to 1000 nM | 1000 to 10000 nM | 1000 to 10000 nM | 100 to 500 nM | 1000 to 10000 nM | 100 to 500 nM | – | – | – | – |
| C=CC(=O)Nc1cc(-c2c(-c3ccc(Cl)c(C(=O)N4CCOCC4)c3)[nH]c3nccc(Cl)c23)ccc1C [Example 34, N-(5-(4-chloro-2-(4-chloro-3-(morpholine-4-carbonyl)phenyl)-1H-pyrrolo[2,3-b]pyridin-3-yl)-2-methylphenyl)acrylamide] | 1000 to 100000 nM | 1000 to 10000 nM | 1000 to 10000 nM | 500 to 1000 nM | 1000 to 10000 nM | 100 to 500 nM | – | – | – | – |
| C=CC(=O)Nc1cc(-c2c(-c3cccc(N4CCN(C(C)=O)CC4)c3)[nH]c3nccc(Cl)c23)ccc1C [Example 35, N-(5-(2-(3-(4-acetylpiperazin-1-yl)phenyl)-4-chloro-1H-pyrrolo[2,3-b]pyridin-3-yl)-2-methylphenyl)acrylamide] | ≤ 100 nM | 500 to 1000 nM | 100 to 500 nM | ≤ 100 nM | 500 to 1000 nM | ≤ 100 nM | – | – | – | – |
| C=CC(=O)Nc1cc(-c2c(-c3cccc(C(=O)N4CCCCCC4)c3)[nH]c3nccc(Cl)c23)ccc1C [Example 45, N-(5-(2-(3-(azepane-1-carbonyl)phenyl)-4-chloro-1H-pyrrolo[2,3-b]pyridin-3-yl)-2-methylphenyl)acrylamide] | 1000 to 100000 nM | 1000 to 10000 nM | > 10000 nM | 1000 to 100000 nM | 1000 to 10000 nM | 100 to 500 nM | – | – | – | – |
| C=CC(=O)Nc1cc(-c2c(-c3cccc(C(=O)N4CCC5(CCNC5=O)CC4)c3)[nH]c3nccc(Cl)c23)ccc1C [Example 46, N-(5-(4-chloro-2-(3-(1-oxo-2,8-diazaspiro[4.5]decane-8-carbonyl)phenyl)-1H-pyrrolo[2,3-b]pyridin-3-yl)-2-methylphenyl)acrylamide] | 500 to 1000 nM | 1000 to 10000 nM | 1000 to 10000 nM | 1000 to 100000 nM | 1000 to 10000 nM | ≤ 100 nM | – | – | – | – |
| C=CC(=O)Nc1cc(-c2c(-c3cccc(C(=O)NC4CCCCC4)c3)[nH]c3nccc(Cl)c23)ccc1C [Example 50, 3-(3-(3-acrylamido-4-methylphenyl)-4-chloro-1H-pyrrolo[2,3-b]pyridin-2-yl)-N-cyclohexylbenzamide] | 1000 to 100000 nM | 1000 to 10000 nM | > 10000 nM | 500 to 1000 nM | 1000 to 10000 nM | 100 to 500 nM | – | – | – | – |
| C=CC(=O)Nc1cc(-c2c(-c3cccc(C(=O)NCCCN(C)Cc4ccccc4)c3)[nH]c3nccc(Cl)c23)ccc1C [Example 51, 3-(3-(3-acrylamido-4-methylphenyl)-4-chloro-1H-pyrrolo[2,3-b]pyridin-2-yl)-N-(3-(benzyl(methyl)amino)propyl)benzamide] | ≤ 100 nM | 500 to 1000 nM | 100 to 500 nM | ≤ 100 nM | 500 to 1000 nM | ≤ 100 nM | – | – | – | – |
| C=CC(=O)Nc1cc(-c2c(-c3cccc(C(=O)N4CCN(C(C)=O)CC4)c3)[nH]c3nccc(Cl)c23)ccc1C [Example 52, N-(5-(2-(3-(4-acetylpiperazine-1-carbonyl)phenyl)-4-chloro-1H-pyrrolo[2,3-b]pyridin-3-yl)-2-methylphenyl)acrylamide] | 100 to 500 nM | 1000 to 10000 nM | 100 to 500 nM | 100 to 500 nM | 1000 to 10000 nM | ≤ 100 nM | – | – | – | – |
| C=CC(=O)Nc1cc(-c2c(-c3cccc(C(=O)N4CCC5(CC4)CN(C)C5)c3)[nH]c3nccc(Cl)c23)ccc1C [Example 53, N-(5-(4-chloro-2-(3-(2-methyl-2,7-diazaspiro[3.5]nonane-7-carbonyl)phenyl)-1H-pyrrolo[2,3-b]pyridin-3-yl)-2-methylphenyl)acrylamide] | ≤ 100 nM | 1000 to 10000 nM | ≤ 100 nM | 100 to 500 nM | 1000 to 10000 nM | ≤ 100 nM | – | – | – | – |

The next lines start with the values.

| IC50 (EGFR wt) | GI50 ([1]; CellTiter-Glo) | IC50 (HER2 INS YVMA; biochemical Lance assay) | IC50 (H1975) | GI50 ([2]; CellTiter-Glo) | IC50 (EGFR T790ML858R) | IC50 (A431) | GI50 [1] | IC50 (HER2 INS YVMA) | GI50 [2] | SMILES |
| --- | --- | --- | --- | --- | --- | --- | --- | --- | --- | --- |
| 100 to 500 nM | 1000 to 10000 nM | 100 to 500 nM | 100 to 500 nM | 1000 to 10000 nM | ≤ 100 nM | – | – | – | – | C=CC(=O)Nc1cc(-c2c(-c3cccc(C(=O)N4CCN(C)CC4)c3)[nH]c3nccc(Cl)c23)ccc1C [Example 44, N-(5-(4-chloro-2-(3-(4-methylpiperazine-1-carbonyl)phenyl)-1H-pyrrolo[2,3-b]pyridin-3-yl)-2-methylphenyl)acrylamide 2,2,2-trifluoroacetate] |
| ≤ 100 nM | 1000 to 10000 nM | ≤ 100 nM | ≤ 100 nM | 1000 to 10000 nM | ≤ 100 nM | 500 to 1000 nM | – | – | – | C=CC(=O)Nc1cc(-c2c(-c3cccc(C(=O)NCCCN4CCCC4)c3)[nH]c3nccc(Cl)c23)ccc1C [Example 47, 3-(3-(3-acrylamido-4-methylphenyl)-4-chloro-1H-pyrrolo[2,3-b]pyridin-2-yl)-N-(3-(pyrrolidin-1-yl)propyl)benzamide] |
| 100 to 500 nM | 500 to 1000 nM | 500 to 1000 nM | 100 to 500 nM | 1000 to 10000 nM | ≤ 100 nM | – | – | – | – | C=CC(=O)Nc1cc(-c2c(-c3cccc(C(=O)NC4CC4)c3)[nH]c3nccc(Cl)c23)ccc1C [Example 49, 3-(3-(3-acrylamido-4-methylphenyl)-4-chloro-1H-pyrrolo[2,3-b]pyridin-2-yl)-N-cyclopropylbenzamide] |
| ≤ 100 nM | – | ≤ 100 nM | 100 to 500 nM | – | ≤ 100 nM | 500 to 1000 nM | – | – | – | C=CC(=O)Nc1cc(-c2c(-c3ccc(N4CCN(C)CC4)cc3)[nH]c3ncc(C(=O)OC(C)C)c(C)c23)ccc1C [Example 198, isopropyl 3-(3-acrylamido-4-methylphenyl)-4-methyl-2-(4-(4-methylpiperazin-1-yl)phenyl)-1H-pyrrolo[2,3-b]pyridine-5-carboxylate] |
| – | – | – | – | – | – | – | 64 nM | 5 nM | 35 nM | C=CC(=O)Nc1cc(-c2c(-c3ccc(N4CCN(C)CC4)cc3)[nH]c3nccc(Cl)c23)ccc1C [drawing 711] |
| – | – | – | – | – | – | – | 754 nM | 916 nM | 1310 nM | CCC(=O)Nc1cc(-c2c(-c3ccc(N4CCN(C)CC4)cc3)[nH]c3nccc(Cl)c23)ccc1C [reference compound] |
